# “And” between values parts separate entries of the source, which are not always exact repeats. Identical values can stand only once.
# How the values were obtained:
# Assay in all cases: PDSP GPCR panel primary binding assays at 10 μM
# [1] = target: T1, cloned human or rodent CNS receptors, channels, and transporters (PDSP panel) (Homo sapiens, UniProt P41595); conditions: Receptor 5-HT2B, primary assay, 10 μM; for Mean %: mean of Inhibition 1-4
# T1 construct: expressed in transfected cells
# In short: (§1)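 Radioligand displacement at cloned human or rodent CNS targets: 46–47 primary binding assays run in quadruplicate at 10 μM. Targets where the compound displaced an average of >50% of radiolabeled standard ligand went to secondary binding in 11-point dose-response, in triplicate; none run for H3, PBR or GABAA.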
# [2] = target: T2, cloned human or rodent CNS receptors, channels, and transporters (PDSP panel) (Homo sapiens, UniProt P14416); conditions: Receptor D2, primary assay, 10 μM; for Mean %: mean of Inhibition 1-4
# T2 construct: expressed in transfected cells
# In short: as §1
# [3] = target: T3, cloned human or rodent CNS receptors, channels, and transporters (PDSP panel) (Homo sapiens, UniProt P23975); conditions: primary assay
# T3 construct: expressed in transfected cells
# In short: as §1
# [4] = target: T4, cloned human or rodent CNS receptors, channels, and transporters (PDSP panel) (Homo sapiens, UniProt P35367); conditions: Receptor H1, primary assay, 10 μM; for Mean %: mean of Inhibition 1-4
# T4 construct: expressed in transfected cells
# In short: as §1
# [5] = target: T5, cloned human or rodent CNS receptors, channels, and transporters (PDSP panel) (Homo sapiens, UniProt P25100); conditions: Receptor Alpha1D, primary assay, 10 μM; for Mean %: mean of Inhibition 1-4
# T5 construct: expressed in transfected cells
# T5 sequence (P25100 1-572): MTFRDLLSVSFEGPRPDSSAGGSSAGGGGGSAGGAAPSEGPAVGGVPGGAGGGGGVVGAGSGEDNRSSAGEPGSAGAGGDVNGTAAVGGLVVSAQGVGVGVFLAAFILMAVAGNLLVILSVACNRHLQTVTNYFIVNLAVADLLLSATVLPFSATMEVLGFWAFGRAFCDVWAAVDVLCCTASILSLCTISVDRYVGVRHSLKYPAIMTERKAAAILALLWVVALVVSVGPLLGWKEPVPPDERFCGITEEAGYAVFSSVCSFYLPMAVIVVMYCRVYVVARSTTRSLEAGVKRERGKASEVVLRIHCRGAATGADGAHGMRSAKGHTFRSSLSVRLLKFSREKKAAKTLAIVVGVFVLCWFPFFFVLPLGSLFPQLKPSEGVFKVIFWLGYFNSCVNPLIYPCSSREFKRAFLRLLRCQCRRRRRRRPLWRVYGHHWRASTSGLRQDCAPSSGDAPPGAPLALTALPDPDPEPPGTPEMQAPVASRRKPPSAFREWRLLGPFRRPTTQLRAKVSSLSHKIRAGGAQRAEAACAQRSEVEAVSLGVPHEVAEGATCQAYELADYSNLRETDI
# In short: as §1
# [6] = test system: cloned human or rodent CNS receptors, channels, and transporters (PDSP panel); conditions: for Mean % / Inhibition 1 / Inhibition 2 / Inhibition 3 / Inhibition 4: primary assay
# In short: as §1
# [7] = target: T6, cloned human or rodent CNS receptors, channels, and transporters (PDSP panel) (Homo sapiens, UniProt P28221); conditions: Receptor 5-HT1D, primary assay, 10 μM; for Mean %: mean of Inhibition 1-4
# T6 construct: expressed in transfected cells
# In short: as §1
# [8] = target: T7, cloned human or rodent CNS receptors, channels, and transporters (PDSP panel) (Homo sapiens, UniProt P31645); conditions: Receptor SERT, primary assay, 10 μM; for Mean %: mean of Inhibition 1-4
# T7 construct: expressed in transfected cells
# In short: as §1
# [9] = Receptor NET, 10 μM, mean of Inhibition 1-4
# [10] = Receptor Alpha1A, 10 μM, mean of Inhibition 1-4
# [11] = Receptor Alpha2A, 10 μM, mean of Inhibition 1-4
# [12] = Receptor Alpha2C, 10 μM, mean of Inhibition 1-4
# [13] = Receptor BZP Rat Brain Site, 10 μM
# [14] = Receptor BZP Rat Brain Site, 10 μM, mean of Inhibition 1-4
# [15] = Receptor DOR, 10 μM, mean of Inhibition 1-4
# [16] = Receptor Sigma 1, 10 μM, mean of Inhibition 1-4
# [17] = Receptor Sigma 2, 10 μM, mean of Inhibition 1-4
# T6 sequence (P28221 whole entry): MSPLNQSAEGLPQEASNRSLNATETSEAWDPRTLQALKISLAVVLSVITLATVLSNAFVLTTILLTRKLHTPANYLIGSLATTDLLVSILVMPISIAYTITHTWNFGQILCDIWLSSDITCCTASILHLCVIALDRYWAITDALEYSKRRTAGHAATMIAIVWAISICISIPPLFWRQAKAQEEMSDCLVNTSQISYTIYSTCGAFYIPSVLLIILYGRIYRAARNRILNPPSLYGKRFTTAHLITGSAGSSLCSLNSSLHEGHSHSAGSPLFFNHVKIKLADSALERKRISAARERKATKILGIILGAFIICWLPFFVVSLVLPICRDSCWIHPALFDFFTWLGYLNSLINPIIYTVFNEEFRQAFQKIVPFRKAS
# T7 sequence (P31645 whole entry): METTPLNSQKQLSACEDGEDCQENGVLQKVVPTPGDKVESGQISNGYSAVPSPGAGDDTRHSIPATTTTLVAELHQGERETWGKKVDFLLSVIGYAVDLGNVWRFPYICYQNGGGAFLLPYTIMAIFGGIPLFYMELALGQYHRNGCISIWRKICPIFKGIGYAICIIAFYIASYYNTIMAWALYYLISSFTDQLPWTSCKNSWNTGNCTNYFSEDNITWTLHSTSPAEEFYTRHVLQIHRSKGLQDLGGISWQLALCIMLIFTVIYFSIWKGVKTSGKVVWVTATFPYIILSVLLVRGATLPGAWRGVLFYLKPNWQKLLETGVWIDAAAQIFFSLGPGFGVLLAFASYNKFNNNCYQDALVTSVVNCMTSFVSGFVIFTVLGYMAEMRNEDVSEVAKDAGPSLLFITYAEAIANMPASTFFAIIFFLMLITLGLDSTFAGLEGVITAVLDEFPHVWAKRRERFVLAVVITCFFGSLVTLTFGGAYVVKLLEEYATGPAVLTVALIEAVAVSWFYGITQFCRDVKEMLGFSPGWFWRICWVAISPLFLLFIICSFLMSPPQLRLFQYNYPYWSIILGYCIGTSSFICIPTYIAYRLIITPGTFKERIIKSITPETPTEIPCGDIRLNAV
# T2 sequence (P14416 whole entry): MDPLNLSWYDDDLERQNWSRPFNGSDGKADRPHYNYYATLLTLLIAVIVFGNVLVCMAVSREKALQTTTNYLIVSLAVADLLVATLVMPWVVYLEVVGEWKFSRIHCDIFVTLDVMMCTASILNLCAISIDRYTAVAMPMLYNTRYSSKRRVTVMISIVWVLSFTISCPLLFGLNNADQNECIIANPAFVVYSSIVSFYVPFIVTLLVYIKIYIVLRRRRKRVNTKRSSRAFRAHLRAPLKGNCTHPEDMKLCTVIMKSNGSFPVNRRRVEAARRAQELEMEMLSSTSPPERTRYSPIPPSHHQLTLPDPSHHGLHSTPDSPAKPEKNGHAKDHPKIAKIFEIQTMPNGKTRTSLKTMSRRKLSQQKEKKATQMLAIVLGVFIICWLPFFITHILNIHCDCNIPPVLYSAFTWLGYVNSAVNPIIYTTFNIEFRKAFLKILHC
# T4 sequence (P35367 whole entry): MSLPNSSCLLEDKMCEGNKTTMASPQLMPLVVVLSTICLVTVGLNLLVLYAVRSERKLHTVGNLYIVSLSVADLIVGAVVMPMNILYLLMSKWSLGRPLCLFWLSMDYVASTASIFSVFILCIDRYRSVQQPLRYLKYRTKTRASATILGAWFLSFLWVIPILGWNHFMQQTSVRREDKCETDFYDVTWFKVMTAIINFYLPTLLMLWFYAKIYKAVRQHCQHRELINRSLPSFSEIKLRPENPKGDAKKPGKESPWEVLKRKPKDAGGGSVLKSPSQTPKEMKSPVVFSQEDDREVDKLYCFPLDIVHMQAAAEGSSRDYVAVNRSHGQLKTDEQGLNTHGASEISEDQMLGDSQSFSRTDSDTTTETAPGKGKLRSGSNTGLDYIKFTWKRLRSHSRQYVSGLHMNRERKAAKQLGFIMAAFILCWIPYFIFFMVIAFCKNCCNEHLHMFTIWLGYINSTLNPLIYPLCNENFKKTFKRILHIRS
# T1 sequence (P41595 whole entry): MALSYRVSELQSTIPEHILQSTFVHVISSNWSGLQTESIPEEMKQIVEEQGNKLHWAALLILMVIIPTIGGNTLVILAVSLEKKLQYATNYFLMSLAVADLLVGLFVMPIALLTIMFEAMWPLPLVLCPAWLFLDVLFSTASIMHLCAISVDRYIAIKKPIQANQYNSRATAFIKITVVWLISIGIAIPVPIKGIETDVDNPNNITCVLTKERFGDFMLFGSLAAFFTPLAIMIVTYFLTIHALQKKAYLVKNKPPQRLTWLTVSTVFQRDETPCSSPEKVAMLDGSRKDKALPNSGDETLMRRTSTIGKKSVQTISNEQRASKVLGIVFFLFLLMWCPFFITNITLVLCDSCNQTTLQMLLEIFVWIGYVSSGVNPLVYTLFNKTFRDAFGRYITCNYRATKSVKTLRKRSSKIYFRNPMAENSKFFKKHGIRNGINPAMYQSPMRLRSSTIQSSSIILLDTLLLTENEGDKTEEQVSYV
# T3 sequence (P23975 whole entry): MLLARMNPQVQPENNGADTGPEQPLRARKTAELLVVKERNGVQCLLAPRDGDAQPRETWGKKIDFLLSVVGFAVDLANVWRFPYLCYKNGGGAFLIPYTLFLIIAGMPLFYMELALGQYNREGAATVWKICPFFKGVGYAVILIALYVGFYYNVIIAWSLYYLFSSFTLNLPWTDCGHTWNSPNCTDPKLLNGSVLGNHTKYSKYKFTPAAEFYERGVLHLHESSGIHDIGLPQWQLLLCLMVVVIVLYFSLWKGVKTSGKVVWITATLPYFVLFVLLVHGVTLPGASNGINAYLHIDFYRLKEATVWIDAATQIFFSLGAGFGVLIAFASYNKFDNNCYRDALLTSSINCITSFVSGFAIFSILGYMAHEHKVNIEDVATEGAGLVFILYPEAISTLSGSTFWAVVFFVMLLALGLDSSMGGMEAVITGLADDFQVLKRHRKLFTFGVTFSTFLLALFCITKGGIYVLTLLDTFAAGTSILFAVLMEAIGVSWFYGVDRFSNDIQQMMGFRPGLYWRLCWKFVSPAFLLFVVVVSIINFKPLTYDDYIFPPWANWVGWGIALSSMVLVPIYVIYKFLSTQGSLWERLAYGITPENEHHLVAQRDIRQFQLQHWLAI
smiles,measurement,setting,value
"O=c1oc2ccccc2cc1-c1cn2cc(Cc3ccc(F)cc3)sc2n1 [UNC10302680A, iMDK]",Inhibition 1,[1],9.18%
same,Inhibition 2,[1],-38.65%
same,Inhibition 3,[1],-23.13%
same,Inhibition 4,[1],-31.52%
same,Mean %,[1],-21.03%
same,Inhibition 1,[2],11.41%
same,Inhibition 2,[2],-7.84%
same,Inhibition 3,[2],-2.59%
same,Inhibition 4,[2],7.52%
same,Mean %,[2],2.13%
same,Mean %,"[3]; NET, mean inhibition",3.1%
same,Inhibition 1,"[3]; NET, replicate 1",-7.15%
same,Inhibition 2,"[3]; NET, replicate 2",-15.77%
same,Inhibition 3,"[3]; NET, replicate 3",-1.08%
same,Inhibition 4,"[3]; NET, replicate 4",36.38%
same,Inhibition 1,"[3]; Receptor NET, 10 μM",34.12%
same,Inhibition 2,"[3]; Receptor NET, 10 μM",0.12%
same,Inhibition 3,"[3]; Receptor NET, 10 μM",-3.41%
same,Inhibition 4,"[3]; Receptor NET, 10 μM",-3.8%
same,Mean %,[3]; [9],6.76%
same,Inhibition 1,[4],99.74%
same,Inhibition 2,[4],88.41%
same,Inhibition 3,[4],71.44%
same,Inhibition 4,[4],51.8%
same,Mean %,[4],77.85%
same,Inhibition 1,[5],-7.71%
same,Inhibition 2,[5],-9.56%
same,Inhibition 3,[5],-10.98%
same,Inhibition 4,[5],-17.23%
same,Mean %,[5],-11.37%
same,Mean %,"[6]; H3, mean inhibition",41.02%
same,Inhibition 1,"[6]; H3, replicate 1",20.04%
same,Inhibition 2,"[6]; H3, replicate 2",32.28%
same,Inhibition 3,"[6]; H3, replicate 3",47.14%
same,Inhibition 4,"[6]; H3, replicate 4",64.63%
same,Mean %,"[6]; H4, mean inhibition",39.36%
same,Inhibition 1,"[6]; H4, replicate 1",11.58%
same,Inhibition 2,"[6]; H4, replicate 2",47.34%
same,Inhibition 3,"[6]; H4, replicate 3",40.86%
same,Inhibition 4,"[6]; H4, replicate 4",57.67%
same,Inhibition 1,"[6]; Receptor Alpha1A, 10 μM",-21.6%
same,Inhibition 2,"[6]; Receptor Alpha1A, 10 μM",-1.59%
same,Inhibition 3,"[6]; Receptor Alpha1A, 10 μM",-0.84%
same,Inhibition 4,"[6]; Receptor Alpha1A, 10 μM",-9.82%
same,Mean %,[6]; [10],-8.46%
same,Inhibition 1,"[6]; Receptor Alpha2A, 10 μM",9.97%
same,Inhibition 2,"[6]; Receptor Alpha2A, 10 μM",11.68%
same,Inhibition 3,"[6]; Receptor Alpha2A, 10 μM",-0.74%
same,Inhibition 4,"[6]; Receptor Alpha2A, 10 μM",-29.15%
same,Mean %,[6]; [11],-2.06%
same,Inhibition 1,"[6]; Receptor Alpha2C, 10 μM",20.53%
same,Inhibition 2,"[6]; Receptor Alpha2C, 10 μM",3.75%
same,Inhibition 3,"[6]; Receptor Alpha2C, 10 μM",5.64%
same,Inhibition 4,"[6]; Receptor Alpha2C, 10 μM",4%
same,Mean %,[6]; [12],8.48%
same,Inhibition 1,[6]; [13],-12.35%
same,Inhibition 2,[6]; [13],-8.18%
same,Inhibition 3,[6]; [13],-22.2%
same,Inhibition 4,[6]; [13],3.1%
same,Mean %,[6]; [14],-9.91%
same,Inhibition 1,"[6]; Receptor DOR, 10 μM",-22.02%
same,Inhibition 2,"[6]; Receptor DOR, 10 μM",-14.61%
same,Inhibition 3,"[6]; Receptor DOR, 10 μM",-13.89%
same,Inhibition 4,"[6]; Receptor DOR, 10 μM",-8.29%
same,Mean %,[6]; [15],-14.7%
same,Inhibition 1,"[6]; Receptor Sigma 1, 10 μM",7.22%
same,Inhibition 2,"[6]; Receptor Sigma 1, 10 μM",-7.42%
same,Inhibition 3,"[6]; Receptor Sigma 1, 10 μM",1.64%
same,Inhibition 4,"[6]; Receptor Sigma 1, 10 μM",5.36%
same,Mean %,[6]; [16],1.7%
same,Inhibition 1,"[6]; Receptor Sigma 2, 10 μM",14.42%
same,Inhibition 2,"[6]; Receptor Sigma 2, 10 μM",15.13%
same,Inhibition 3,"[6]; Receptor Sigma 2, 10 μM",40.23%
same,Inhibition 4,"[6]; Receptor Sigma 2, 10 μM",21.82%
same,Mean %,[6]; [17],22.9%
same,Inhibition 1,[7],-3.85%
same,Inhibition 2,[7],-18.84%
same,Inhibition 3,[7],15.72%
same,Inhibition 4,[7],-8.43%
same,Mean %,[7],-3.85%
same,Inhibition 1,[8],-12.44% and -8.39%
same,Inhibition 4,[8],-3% and 3.01%
same,Mean %,[8],-8.37% and -12.73%
"CCCCNc1ncc2c(-c3ccc(CN4CCN(C)CC4)cc3)cn([C@H]3CC[C@H](O)CC3)c2n1 [UNC2025C, UNC2025]",Inhibition 1,[1],1.21%
same,Inhibition 2,[1],8.76%
same,Inhibition 3,[1],-7.6%
same,Inhibition 4,[1],18.41%
same,Mean %,[1],5.2%
same,Inhibition 1,[2],11.9%
same,Inhibition 2,[2],-4.63%
same,Inhibition 3,[2],2.76%
same,Inhibition 4,[2],-1.81%
same,Mean %,[2],2.06%
same,Inhibition 1,"[3]; Receptor NET, 10 μM",67.05% and 40.06%
same,Inhibition 2,"[3]; Receptor NET, 10 μM",52.92% and 42.04%
same,Inhibition 3,"[3]; Receptor NET, 10 μM",47% and 40.28%
same,Inhibition 4,"[3]; Receptor NET, 10 μM",46.05% and 54.77%
same,Mean %,[3]; [9],53.26% and 44.29%
same,Inhibition 1,[4],34.93%
same,Inhibition 2,[4],33.32%
same,Inhibition 3,[4],29.49%
same,Inhibition 4,[4],24.93%
same,Mean %,[4],30.67%
same,Inhibition 1,[5],50.98%
same,Inhibition 2,[5],57.37%
same,Inhibition 3,[5],48.7%
same,Inhibition 4,[5],44.3%
same,Mean %,[5],50.34%
same,Affinity for receptors in primary assays,"[6]; 10 μM, 46-47 primary binding assays",possessed affinity for the most receptors in primary assays
same,Inhibition 1,"[6]; Receptor Alpha1A, 10 μM",55.27%
same,Inhibition 2,"[6]; Receptor Alpha1A, 10 μM",34.14%
same,Inhibition 3,"[6]; Receptor Alpha1A, 10 μM",47.98%
same,Inhibition 4,"[6]; Receptor Alpha1A, 10 μM",43.68%
same,Mean %,[6]; [10],45.27%
same,Inhibition 1,"[6]; Receptor Alpha2A, 10 μM",41.44%
same,Inhibition 2,"[6]; Receptor Alpha2A, 10 μM",35.02%
same,Inhibition 3,"[6]; Receptor Alpha2A, 10 μM",40.8%
same,Inhibition 4,"[6]; Receptor Alpha2A, 10 μM",38.73%
same,Mean %,[6]; [11],39%
same,Inhibition 1,"[6]; Receptor Alpha2C, 10 μM",51.96%
same,Inhibition 2,"[6]; Receptor Alpha2C, 10 μM",38.52%
same,Inhibition 3,"[6]; Receptor Alpha2C, 10 μM",26.65%
same,Inhibition 4,"[6]; Receptor Alpha2C, 10 μM",27.54%
same,Mean %,[6]; [12],36.17%
same,Inhibition 1,[6]; [13],-0.21%
same,Inhibition 2,[6]; [13],6.71%
same,Inhibition 3,[6]; [13],5.47%
same,Inhibition 4,[6]; [13],13.44%
same,Mean %,[6]; [14],6.35%
same,Inhibition 1,"[6]; Receptor DOR, 10 μM",-5.58%
same,Inhibition 2,"[6]; Receptor DOR, 10 μM",-6.66%
same,Inhibition 3,"[6]; Receptor DOR, 10 μM",-9.56%
same,Inhibition 4,"[6]; Receptor DOR, 10 μM",1.65%
same,Mean %,[6]; [15],-5.04%
same,Inhibition 1,"[6]; Receptor H3, 10 μM",93.48%
same,Inhibition 2,"[6]; Receptor H3, 10 μM",95.52%
same,Inhibition 3,"[6]; Receptor H3, 10 μM",93.48%
same,Inhibition 4,"[6]; Receptor H3, 10 μM",100.47%
same,Mean %,"[6]; Receptor H3, 10 μM, mean of Inhibition 1-4",95.74%
same,Inhibition 1,"[6]; Receptor H4, 10 μM",42.06%
same,Inhibition 2,"[6]; Receptor H4, 10 μM",42.3%
same,Inhibition 3,"[6]; Receptor H4, 10 μM",60.79%
same,Inhibition 4,"[6]; Receptor H4, 10 μM",92.47%
same,Mean %,"[6]; Receptor H4, 10 μM, mean of Inhibition 1-4",59.41%
same,Inhibition 1,"[6]; Receptor Sigma 1, 10 μM",4.46%
same,Inhibition 2,"[6]; Receptor Sigma 1, 10 μM",61.96%
same,Inhibition 3,"[6]; Receptor Sigma 1, 10 μM",35.63%
same,Inhibition 4,"[6]; Receptor Sigma 1, 10 μM",46.38%
same,Mean %,[6]; [16],37.11%
same,Inhibition 1,"[6]; Receptor Sigma 2, 10 μM",97.53%
same,Inhibition 2,"[6]; Receptor Sigma 2, 10 μM",96.04%
same,Inhibition 3,"[6]; Receptor Sigma 2, 10 μM",97.25%
same,Inhibition 4,"[6]; Receptor Sigma 2, 10 μM",98.03%
same,Mean %,[6]; [17],97.21%
same,Inhibition 1,[7],51.95%
same,Inhibition 2,[7],44.87%
same,Inhibition 3,[7],26.55%
same,Inhibition 4,[7],48.2%
same,Mean %,[7],42.89%
same,Inhibition 1,[8],82.19% and 71%
same,Inhibition 2,[8],70.62% and 68.78%
same,Inhibition 3,[8],68.77% and 67.79%
same,Inhibition 4,[8],72.64% and 73.98%
same,Mean %,[8],73.56% and 70.39%
